The values below come from ChEMBL document CHEMBL3045070, “Identification of in vitro inhibitors of Mycobacterium tuberculosis Lysine -aminotransferase by pharmacophore mapping and three-dimensional flexible searches” (Med Chem Res, 2008).

In test [1] the target is T1, L-lysine-epsilon aminotransferase (Mycobacterium tuberculosis) (UniProt P9WQ77).
T1 sequence (whole entry): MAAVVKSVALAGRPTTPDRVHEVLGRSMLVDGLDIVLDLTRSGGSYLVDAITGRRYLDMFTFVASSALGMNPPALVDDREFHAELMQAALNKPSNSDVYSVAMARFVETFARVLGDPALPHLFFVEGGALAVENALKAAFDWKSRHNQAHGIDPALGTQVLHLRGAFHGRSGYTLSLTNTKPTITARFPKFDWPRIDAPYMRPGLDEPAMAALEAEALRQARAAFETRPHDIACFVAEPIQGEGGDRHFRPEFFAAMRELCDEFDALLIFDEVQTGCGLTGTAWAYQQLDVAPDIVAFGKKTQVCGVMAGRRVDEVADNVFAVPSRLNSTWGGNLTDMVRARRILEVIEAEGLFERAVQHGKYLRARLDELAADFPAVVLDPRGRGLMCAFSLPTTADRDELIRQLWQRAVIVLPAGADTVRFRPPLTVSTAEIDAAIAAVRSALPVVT
Nature of the test: Inhibition of Mycobacterium tuberculosis lysine-epsilon aminotransferase at 400 uM.

Test [2] deals with T1, L-lysine-epsilon aminotransferase (Mycobacterium tuberculosis). Nature of the test: Inhibition of Mycobacterium tuberculosis lysine-epsilon aminotransferase at 600 uM.

Active and inactive are the calls of the source. The calls are words filed in the database; no cut-off is given here.

As for `CN(CC(O)c1ccccc1)CC1CCCCN1C` (configuration not stated), the inhibition (usually the change of the read-out against control, counted positive when it falls) in test [1] was “Active”.
Molecule `COc1ccc(CC(=O)NCC2c3[nH]c4ccccc4c3CC3C(=O)N(CCc4ccc(OC)c(OC)c4)C(=O)N32)cc1` (configuration not stated) returned an inhibition in test [2] of 60%.
